Experimental data: patent publication US20230310424A1, “METHODS AND MATERIALS FOR INCREASING NICOTINAMIDE PHOSPHORIBOSYL TRANSFERASE ACTIVITY” (University of Pittsburgh - Of the Commonwealth System of …, priority 2020, published 2023)

test system: NAD^+ levels in cells; assay: Assay for Total NADH and NAD+ Measurements in Cells; assay type: cell-based; details: cells incubated overnight with test compound; 100 percent = no change vs untreated control cells; cell type and concentration not given
Method: 2,000 cells/well and, at the same time, test compounds dissolved in media at the desired concentration were added to each well. The treated cells were incubated overnight in CO2 incubator. The cells were washed 6 times with PBS with 1 mM CaCl2 and 1 mM MgCl2. In the last wash, 10 μL of PBS with 1 mM CaCl2 and 1 mM MgCl2 per well were left in each well. Immediately thereafter, 10 μL 0.4% dodecyltrimethyl-ammonium bromide (DTAB) in phosphate buffer pH 8.0 as added, and the plates were shaked at 1000 rpm for 5 minutes. 60 μL reaction mix was added, and fluorescence at Ex/Em 530/585 was immediately monitored. A linear increase should be achieved with 8 cycles every 92 seconds, 10 number of flashes/well/cycle. The reaction mix was prepared per the following table, respecting the amount and order in which each component was added:
A percentage of 100 percent would indicate no increase or decrease in NAD^+ levels as compared to that measured for untreated control cells, while a percentage of 125 percent would indicate an increase in NAD^+ levels of 25 percent as compared to that measured for untreated control cells.

SMILES | A: increase in NAD^+ levels in cells in response to the test compound, as the percent of NAD^+ levels compared to that in the absence of the test compound
C#CCNC(=O)c1cnc2nc(-c3ccc(F)cc3)c(-c3ccc(F)cc3)nc2c1 [BC20257] | 130%
CN(C)CCNC(=O)c1cnc2nc(-c3ccc(F)cc3)c(-c3ccc(F)cc3)nc2c1 [BC20201] | 133%
COCCNC(=O)c1cnc2nc(-c3ccc(F)cc3)c(-c3ccc(F)cc3)nc2c1 [BC20200] | 132%
Fc1ccc(-c2nc3cc(-c4nnn[nH]4)ccc3nc2C(F)(F)F)cc1 [BC19113] | 110%
CN(C)c1cccc(-c2nc3ccc(C(=O)O)cc3nc2-c2cccc(N(C)C)c2)c1 [BC19500] | 107%
Fc1ccc(-c2nc3ccc(-c4ncco4)cc3nc2-c2ccc(F)cc2)cc1 [BC19145] | 106%
Fc1ccc(-c2nc3ccc(-c4nnn[nH]4)cc3nc2-c2ccc(F)cc2)cc1 [BC19144] | 107%
CNC(=O)c1ccc2nc(-c3cccs3)c(-c3ccc(F)cc3)nc2c1 [BC19119] | 112%
CN(C)c1cccc(-c2nc3ccc(C(=O)NCCO)cc3nc2-c2cccc(N(C)C)c2)c1 [BC19502] | 115%
CN1CCN(C(=O)c2ccc3nc(-c4ccc(F)cc4)c(C(F)(F)F)nc3c2)CC1 [BC19110] | 105%
CS(=O)(=O)c1ccc(-c2nc3ccc(-c4ncco4)cc3nc2-c2ccc(F)cc2)s1 [BC19248] | 125%
C#CCNC(=O)c1ccc2nc(-c3cccc(N(C)C)c3)c(-c3cccc(N(C)C)c3)nc2c1 [BC19499] | 165%
C#CCNC(=O)c1ccc2nc(-c3ccc(F)cc3)c(-c3cccs3)nc2c1 [BC19189] | 109%
C#CCNC(=O)c1ccc2nc(-c3cccc(NC(=O)CN(C)C)c3)c(-c3cccc(NC(=O)CN(C)C)c3)nc2c1 [BC20287] | 120%
CN1CCN(C(=O)c2ccc3nc(C(F)(F)F)c(-c4cccnc4)nc3c2)CC1 [BC19105] | 105%
CN1CCN(C(=O)c2ccc3nc(C(F)(F)F)c(-c4ccncc4)nc3c2)CC1 [BC19149] | 106%
Cc1cnc(-c2ccc3nc(-c4ccc(F)cc4)c(-c4cccs4)nc3c2)o1 [BC19249] | 119%
O=C(O)c1ccc2nc(-c3ccc(F)cc3)c(-c3ccc(F)cc3)nc2c1 [BC19118] | 108%
Cn1cnnc1-c1ccc2nc(-c3ccc(F)cc3F)c(-c3ccccc3)nc2c1 [BC19444] | 112%
Cc1noc(-c2ccc3nc(-c4ccc(F)cc4)c(-c4ccc(F)cc4)nc3c2)n1 [BC19193] | 109%
NC(=O)c1ccc2nc(-c3ccc(F)cc3)c(-c3cccs3)nc2c1 [BC19187] | 113%
NC(=O)c1ccc2nc(-c3ccc(F)cc3)c(C(F)(F)F)nc2c1 [BC19117] | 116%
Fc1ccc(-c2nc3cc(-c4nnn[nH]4)ccc3nc2-c2cccs2)cc1 [BC19186] | 105%
CN1CCN(C(=O)c2ccc3nc(-c4cccs4)c(-c4ccc(F)cc4)nc3c2)CC1 [BC19109] | 111%
O=C(O)c1ccc2nc(-c3ccc(F)cc3)c(-c3cccs3)nc2c1 [BC19156] | 105%
CN1CCN(C(=O)c2ccc3nc(-c4ccc(C#N)cc4)c(-c4ccc(C#N)cc4)nc3c2)CC1 [BC19446] | 106%
